# Experimental data: US8592466B2, “Methods for treating conditions caused by higher-than-normal dopaminergic activity in basal ganglia” (Neuropill, Inc., priority 2008, dated 2013)
# Legend:
# [1] = tested on: serum prolactin; test: Serum prolactin radioimmunoassay; format: in vivo, humans
# Description: Blood for prolactin level determinations were collected on day 0 at 6:00 A.M. before breakfast (7:00 A.M.) and also three times a day on days 15, 22 and 29 with first blood draw performed at 6:00 A.M. before the morning dose of RPR 102681 (6:05 A.M.) and the other two at 30 minutes after each i.v. infusion. Prolactin levels on days 15, 22, and 29 were compared between RPR 102681 and placebo cohorts to determine the extent to which prolactin levels are modified by the administration of RPR 102681 using repeated measures ANOVA. Changes in prolactin level induced by 40 mg cocaine infusion along with RPR 102681 (days 15, 22 and 29) were compared for each subject by RPR 102681 dose level using repeated measures ANOVA.
# Prolactin concentrations were determined using a commercially available radioimmunoassay (Coat-A-Count® Prolactin IRMA, Diagnostic Products Corporation, Los Angeles, Calif.). Calibrator and QCs (CONE, lots #019 and 020) were also supplied by the manufacturer. Fifty microliters of calibrators, QCs and study samples were added to prolactin polyclonal antibody-coated tubes. This was followed by 200 μL of ^125I-labeled prolactin monoclonal antibodies, followed by shaking for 2 hours. The tubes were decanted and drained; 2 mLs of buffered wash solution was added for 1-2 minutes; the tubes were again decanted and drained; this was followed by a second wash step. After thorough draining, the radioactivity in the tubes was determined from 1 minute counts using a Packard Cobra II gamma counter (Downers Grove, Ill.). In theory, the ^125I-labeled prolactin monoclonal antibodies bind only to prolactin bound to the antibody coated onto the tubes. The radioactivity retained in the tube increases as does the amount of prolactin in the samples. The software for the gamma counter generates a standard curve based on the log of the concentration and the log of the B/Bo for the calibrators. This curve is used to back-calculate the concentration of prolactin in the samples. […]
# [2] = Phase I cocaine interaction study: heart rate and blood pressure
# [3] = cited from earlier work
# [4] = NIH study: treatment of cocaine abuse; conditions: humans
smiles,measurement,setting,value
"CC(C(=O)O)c1cccc(NC(=O)NCC(=O)N2C(C(=O)OC(C)(C)C)CSC2c2ccccc2F)c1 [RPR 102681, (2S)-2-{3-[3-({[(2R,4R)-4-tert-Butoxycarbonyl-2-(2-fluorophenyl)]-3-thiazolidinyl}carbonylmethyl)ureido]phenyl}propionic acid]",post-cocaine prolactin value vs post-saline value,"[1]; RPR 102681 group, day 29",significantly lower
same,"serum prolactin levels, RPR 102681 vs placebo subjects","[1]; day 0 and pre-infusion days 15, 22, 29",no significant differences
same,"serum prolactin response to cocaine or saline infusion, RPR 102681 vs placebo","[1]; infusion days 15, 22, 29",no significant difference
same,elevation of DBP after cocaine,"[2]; RPR 800 mg, cocaine 20 mg i.v., P-value=0.093",reduces
same,elevation of HR after cocaine,"[2]; RPR 800 mg, cocaine 40 mg i.v., P-value=0.009",reduces the elevation of HR
same,elevation of SBP after cocaine,"[2]; RPR 102681 200 mg, cocaine 20 mg i.v., P-value=0.031",increased the elevation of SBP
same,SBP increase in response to cocaine vs placebo group,"[2]; cocaine 20 mg, GEE model adjusted for baseline, P-value=0.0412",significantly greater SBP increase
same,maximum HR/SBP/DBP changes across RPR 102681 dose conditions,"[2]; pair-wise comparisons within RPR 102681 group, in general",does not significantly change HR/SBP/DBP
same,"HR/SBP/DBP, RPR 102681 vs placebo groups","[2]; prior to infusions, post saline or post cocaine infusions, any day",no statistical difference
same,diarrhea,[3]; first clinical study,2 occurrences
same,euphoria,[3]; first clinical study,2 occurrences
same,headaches,[3]; first clinical study,3 occurrences
same,postural hypotension,[3]; first clinical study,6 occurrences
same,somnolence,[3]; first clinical study,3 occurrences
same,flatulence,[3]; second clinical study,4 occurrences
same,headache,[3]; second clinical study,1 occurrences
same,pharyngitis,[3]; second clinical study,4 occurrences
same,serious adverse events,[3]; two clinical studies in France and two NIH studies,no serious adverse events
same,efficacy in treating cocaine abuse,[4],ineffective
